In article PMC7555312, “Functional Characterization of Temporin-SHe, a New Broad-Spectrum Antibacterial and Leishmanicidal Temporin-SH Paralog from the Sahara Frog (Pelophylax saharicus)” (International Journal of Molecular Sciences, 2020):
Where no end group is shown, it is not given here.

Columns and labels:
[1] = test system: human THP-1 monocytes; conditions: taken from literature; cited from earlier work
[2] = test system: L. ivanovii (Li4pVS2); conditions: liquid growth inhibition (CLSI), 10^6 CFU/mL in brain heart infusion (BHI) medium, 37 °C, 18–20 h, OD 630 nm; mean of three independent experiments in triplicate
Procedure: Antibacterial activity of temporin-SHe was evaluated against Gram-positive bacteria including S. aureus strains (ATCC 25923, ST1065), antibiotic-resistant S. aureus strains (ATCC 43300, ATCC BAA-44), E. faecalis (ATCC 29212), B. megaterium, and L. ivanovii (Li4pVS2), and Gram-negative bacteria including E. coli strains (ATCC 25922, ATCC 35218, ML-35p), S. enterica (serotype Enteritidis), P. aeruginosa (ATCC 27853), A. baumannii (ATCC 19606) and K. pneumoniae (ATCC 13883). Antifungal activity was evaluated against C. albicans (ATCC 90028), C. parapsilosis (ATCC 22019) and S. cerevisiae. ATCC strains were purchased from American-Type Culture Collection (ATCC, Virginia, VA, USA). Antiparasitic activity was determined against promastigotes of several species of Leishmania responsible for visceral, cutaneous and mucocutaneous leishmaniases: L. infantum (strain MHOM/MA/67/ITMAP-263), L. major (strain MHOM/SU/73/5-ASKH), and L. braziliensis (strain MHOM/BR/75/M2904), respectively. Cytotoxicity was assessed against human red blood cells and THP-1 monocytes. Peripheral blood was obtained from healthy adult donors (Établissement Français du Sang, Paris, France). All donors signed informed consent allowing the use of their blood for research purposes.
Antimicrobial activity was assessed with a liquid growth inhibition assay performed according to a previously described protocol using the Clinical and Laboratory Standards Institute (CLSI) guidelines. Briefly, in 96-well microtitration plates, mid-log-phase bacteria diluted to 10^6 CFU/mL in Mueller–Hinton (MH) broth were added to different concentrations of synthetic temporin-SHe (1–200 µM, final concentrations) and incubated at 37 °C for 18–20 h, under shaking (150 rpm). For E. faecalis, L. ivanovii and yeasts/fungi, 10^6 CFU/mL suspensions were prepared in LB broth, brain heart infusion (BHI) medium and Yeast Peptone Dextrose (YPD) medium, respectively, and incubation was performed at 30 °C for yeasts/fungi. […] MIC values represent the average of three independent experiments, each performed in triplicate with negative (no peptide) and positive (formaldehyde 0.7%) controls.

[3] = test system: E. faecalis; design: method as in 2 sources, ref 48 = [48]; PMID 28402481; doi:10.1093/abbs/gmx032; 48. Wang X. Ren S. Guo C. Zhang W. Zhang X. Zhang B. Li S. Ren J. Hu Y. Wang H. Identification and functional analyses of novel antioxidant peptides and antimicrobial peptides from skin secretions of ||| ref 49 = [49]; PMID 25066917; doi:10.1016/j.biochi.2014.07.013; 49. Guo C. Hu Y. Li J. Liu Y. Li S. Yan K. Wang X. Liu J. Wang H. Identification of multiple peptides with antioxidant and antimicrobial activities from skin and its secretions of Hylarana taipehensis; conditions: cited from earlier work
[4] = test system: Gram-negative bacteria (E. coli, P. aeruginosa, and K. pneumoniae); design: method as in PMID 28402481; conditions: cited from earlier work
[5] = test system: Candida species (C. albicans and C. glabrata); design: method as in PMID 28402481; conditions: cited from earlier work
[6] = test system: S. aureus; design: method as in 3 sources, one per row (each row's own in cited_ref): ref 46 = [46]; PMID 14499272; doi:10.1016/S0196-9781(03)00193-1; 46. Ali M.F. Knoop F.C. Vaudry H. Conlon J.M. Characterization of novel antimicrobial peptides from the skins of frogs of the Rana esculenta complex Peptides 2003 24 955 961 10.1016/S0196-9781(03)0019 ||| ref 48 = [48]; PMID 28402481; doi:10.1093/abbs/gmx032; 48. Wang X. Ren S. Guo C. Zhang W. Zhang X. Zhang B. Li S. Ren J. Hu Y. Wang H. Identification and functional analyses of novel antioxidant peptides and antimicrobial peptides from skin secretions of ||| ref 49 = [49]; PMID 25066917; doi:10.1016/j.biochi.2014.07.013; 49. Guo C. Hu Y. Li J. Liu Y. Li S. Yan K. Wang X. Liu J. Wang H. Identification of multiple peptides with antioxidant and antimicrobial activities from skin and its secretions of Hylarana taipehensis; conditions: cited from earlier work
[7] = test system: Nocardia asteroides; design: method as in 2 sources, ref 48 = [48]; PMID 28402481; doi:10.1093/abbs/gmx032; 48. Wang X. Ren S. Guo C. Zhang W. Zhang X. Zhang B. Li S. Ren J. Hu Y. Wang H. Identification and functional analyses of novel antioxidant peptides and antimicrobial peptides from skin secretions of ||| ref 49 = [49]; PMID 25066917; doi:10.1016/j.biochi.2014.07.013; 49. Guo C. Hu Y. Li J. Liu Y. Li S. Yan K. Wang X. Liu J. Wang H. Identification of multiple peptides with antioxidant and antimicrobial activities from skin and its secretions of Hylarana taipehensis; conditions: cited from earlier work
[8] = test system: E. coli; design: method as in PMID 14499272; conditions: cited from earlier work
[9] = test system: L. mexicana amastigotes; conditions: cited from earlier work
Description: Temporin-SHe represents an additional temporin with antiparasitic properties. This peptide was able to kill promastigote forms of the human parasite Leishmania, responsible for visceral (L. infantum), cutaneous (L. major) and muco-cutaneous (L. braziliensis) leishmaniasis. […] Until today, only six temporins (Ta, Tb, SHa, SHd, Tl and Tf) have been described as antiparasitic peptides and very few AMPs of other families are active against parasites (The Antimicrobial Peptide ...

FLPAALAGIGGILGKLF-NH2 [Temporin-SHd, reference compound]
LC50 (lethal concentration 50) [1]: 66 µM | MIC [2]: 10 µM

FLPFLAGLFGKIF-NH2 [Temporin-HB2, temporin isolated from the Hubei Frog Pelophylax hubeiensis]
MIC [3]: 19 µM | activity against Gram-negative bacteria [4]: No activity | activity against Candida species [5]: No activity | MIC [6]: 150 µM | MIC [7]: 75 µM

FLPLLFGALSTLLPKIF-NH2 [Temporin-TP3, temporin isolated from skin secretions of Hylarana taipehensis]
MIC [3]: 50 µM | MIC [6]: 25 µM | MIC [7]: 12.5 µM

FLPVIAGLLSKLF-NH2 [Temporin-1Ec, temporin isolated from Pelophylax lessonae/ridibundus]
MIC [6]: 8 µM | MIC [8]: > 100 µM

FLSGIVGMLGKLF-NH2 [Temporin-SHa, 13-residue temporin-SH from Pelophylax saharicus]
less efficiency against L. mexicana amastigotes (compared with promastigotes) [9]: approximately 10 fold
